Patent US11229599B2, “Implant compositions for the unidirectional delivery of therapeutic compounds to the brain” (Board of Regents, the University of Texas System, priority 2015, dated 2022)

Assay: Differential scanning calorimetry, physical state of APAP in glycerol behenate
Type: physicochemical
Conditions: FIG. 6; 5% APAP+95% glycerol behenate, physical blend and melt mix
Protocol: Differential scanning calorimetry testing was performed using a TA Thermal Analyzer (Model DSC Q20, TA Instruments, New Castle, Del., US). The temperature was calibrated with an indium standard. Sample size was about 5 mg and a temperature ramp of 10° C. per minute was used. Universal Analysis 2000 data analysis software was used for data analysis. Inflection point method was used for the analysis of the glass transition temperature. The melting temperature is defined as the intersection of the extension of the baseline with the tangent at the inflection point of the curve.

SMILES: CC(=O)Nc1ccc(O)cc1 [APAP, acetaminophen]
- physical state of APAP in glycerol behenate: dispersed as crystalline particles
